target: BACE (Homo sapiens, UniProt P56817); assay: Ki Determination for the Inhibition of BACE (FS-1 peptide fluorescence cleavage assay); assay type: biochemical; settings: apparent Ki; 50 nM BACE, 10 μM FS-1 substrate, 0.1M sodium acetate pH 4.5
Summary of the method: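 Human BACE (50 nM) was preincubated 15 min at room temperature with compound (2% DMSO) in 0.1 M sodium acetate pH 4.5, then 10 μM FS-1 peptide was added. Cleavage was followed by fluorescence (ex 355/em 495 nm), and apparent Ki came from fitting to the integrated competitive tight-binding inhibition equation.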

Sequence of BACE (P56817 46-501): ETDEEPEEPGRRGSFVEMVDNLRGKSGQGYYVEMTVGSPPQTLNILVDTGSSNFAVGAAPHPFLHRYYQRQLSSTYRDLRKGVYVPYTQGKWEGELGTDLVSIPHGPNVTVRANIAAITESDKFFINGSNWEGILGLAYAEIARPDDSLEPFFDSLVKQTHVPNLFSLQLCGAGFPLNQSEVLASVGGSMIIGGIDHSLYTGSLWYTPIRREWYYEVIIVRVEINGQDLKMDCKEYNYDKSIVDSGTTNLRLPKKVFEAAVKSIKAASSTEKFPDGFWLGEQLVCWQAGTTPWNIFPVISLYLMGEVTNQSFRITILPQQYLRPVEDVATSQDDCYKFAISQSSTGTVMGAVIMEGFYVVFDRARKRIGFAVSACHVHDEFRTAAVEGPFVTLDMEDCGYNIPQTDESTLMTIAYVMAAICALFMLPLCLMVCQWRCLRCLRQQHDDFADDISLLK

Row | SMILES | Ki [µM]
1 | O=C(Nc1cc(C(F)(F)F)ccc1N1CCCNCC1)c1cccc2ccccc12 [Compound 201, Naphthalene-1-carboxylic acid (2-[1,4]diazepan-1-yl-5-trifluoromethyl-phenyl)-amide] | > 30
2 | O=C(c1ccc2ccccc2c1)n1c2c(c3cc(OCc4ccc(C(F)(F)F)cc4)ccc31)CCNC2 [Compound 536, Naphthalen-2-yl-[6-(4-trifluoromethyl-benzyloxy)-1,2,3,4-tetrahydro-b-carbolin-9-yl]-methanone] | < 3
3 | O=S(=O)(Nc1cc(C(F)(F)F)ccc1N1CCNCC1)c1ccc(-c2ccccc2)cc1 [Compound 137, Biphenyl-4-sulfonic acid (2-piperazin-1-yl-5-trifluoromethyl-phenyl)-amide] | 3 to 30
4 | COC(=O)c1cccc(-c2cc(COc3ccccc3C(F)(F)F)c(C3=CCNCC3)cc2COc2ccccc2C(F)(F)F)c1 [Compound 368, 4′-(1,2,3,6-Tetrahydro-pyridin-4-yl)-2′,5′-bis-(2-trifluoromethyl-phenoxymethyl)-biphenyl-3-carboxylic acid methyl ester] | < 3
5 | O=C(Nc1cc(-c2cccnc2)ccc1N1CCNCC1)c1cccc2ccccc12 [Compound 110, Naphthalene-1-carboxylic acid (2-piperazin-1-yl-5-pyridin-3-yl-phenyl)-amide] | 3 to 30
6 | Cc1cc(N2CCNCC2)c(NC(=O)c2cccc3ccccc23)cc1Br [Compound 112, Naphthalene-1-carboxylic acid (5-bromo-4-methyl-2-piperazin-1-yl-phenyl)-amide] | > 30
7 | O=C(Nc1cccc2ccccc12)c1ccc(COc2ccccc2C(F)(F)F)cc1C1=CCNCC1 [Compound 322, N-Naphthalen-1-yl-2-(1,2,3,6-tetrahydro-pyridin-4-yl)-4-(2-trifluoromethyl-phenoxymethyl)-benzamide] | 3 to 30
8 | FC(F)(F)c1ccccc1OCc1cc(-c2cc3ccccc3o2)c(COc2ccccc2C(F)(F)F)cc1C1=CCNCC1 [Compound 357, 4-[4-Benzofuran-2-yl-2,5-bis-(2-trifluoromethyl-phenoxymethyl)-phenyl]-1,2,3,6-tetrahydro-pyridine] | < 3
9 | COC(=O)c1cc(C2=CCNCC2)c(COc2ccccc2C(F)(F)F)cc1-c1ccoc1 [Compound 383, 2-Furan-3-yl-5-(1,2,3,6-tetrahydro-pyridin-4-yl)-4-(2-trifluoromethyl-phenoxymethyl)-benzoic acid methyl ester] | 3 to 30

Further lines, results first:

Row | Ki [µM] | SMILES
10 | < 3 | O=C(Nc1cc(-c2cc(F)c(C(F)(F)F)cc2F)ccc1N1CCNCC1)c1cccc2ccccc12 [Compound 162, Naphthalene-1-carboxylic acid (2′,5′-difluoro-4-piperazin-1-yl-4′-trifluoromethyl-biphenyl-3-yl)-amide]
11 | > 30 | O=S(=O)(Nc1cc(C(F)(F)F)ccc1N1CCNCC1)c1cccc2ccccc12 [Compound 135, Naphthalene-1-sulfonic acid (2-piperazin-1-yl-5-trifluoromethyl-phenyl)-amide]
12 | 3 to 30 | O=S(=O)(Nc1cc(-c2ccc(Cl)c(Cl)c2)ccc1N1CCNCC1)c1ccc(-c2cccc(Cl)c2)cc1 [Compound 180, 3′-Chloro-biphenyl-4-sulfonic acid (3′,4′-dichloro-4-piperazin-1-yl-biphenyl-3-yl)-amide]
13 | < 3 | FC(F)(F)c1ccccc1OCc1cc(-c2ccccc2C(F)(F)F)c(COc2ccccc2C(F)(F)F)cc1C1=CCNCC1 [Compound 336, 4-[2′-Trifluoromethyl-2,5-bis-(2-trifluoromethyl-phenoxymethyl)-biphenyl-4-yl]-1,2,3,6-tetrahydro-pyridine]
14 | 3 to 30 | FC(F)(F)c1cccc(-c2cc(COc3ccccc3C(F)(F)F)c(C3=CCNCC3)cc2COc2ccccc2C(F)(F)F)c1 [Compound 337, 4-[3′-Trifluoromethyl-2,5-bis-(2-trifluoromethyl-phenoxymethyl)-biphenyl-4-yl]-1,2,3,6-tetrahydro-pyridine]
15 | < 3 | FC(F)(F)c1cccc(COC2CNCC(COc3ccc4ccccc4c3)C2c2ccc(-c3ccccc3)cc2)c1 (stereo not drawn) [Compound 413]

Reference: patent publication US20030095958A1, “Inhibitors of bace” (priority 2001, published 2003)
